Reference: PMC8157947, “Peptidic boronic acids are potent cell-permeable inhibitors of the malaria parasite egress serine protease SUB1” (Proceedings of the National Academy of Sciences of the …, 2021)

How the values were obtained:
[1] = tested on: asexual blood-stage P. falciparum (clone 3D7); assay: SYBR Green I parasite growth assay; assay type: cell-based, Plasmodium falciparum
Description: The impact of the peptidic boronic acids on replication of asexual blood-stage P. falciparum (clone 3D7) was assessed using a SYBR Green I assay, essentially as described by Smilkstein et al. ([22]). Briefly, test compounds (dissolved in dimethyl sulfoxide [DMSO] at concentrations ranging from 4 mM to 5 μM) were added in triplicate to wells of flat bottomed, 96-well microtitre plates (1 μL per well). Wells were then supplemented with 100 μL per well of a P. falciparum parasite culture at 0.1% parasitaemia, 1% hematocrit. Each assay plate also included DMSO-only control wells (1% vol/vol), as well as additional control wells containing uninfected RBCs only. Plates were incubated in sealed, humidified gassed chambers at 37 °C for 96 h to allow the parasites to undergo two entire cycles of erythrocytic growth. Wells were then supplemented with 100 μL 1:5,000 dilution of stock SYBR Green I (Life Technologies, catalog no. S7563) diluted in 20 mM Tris HCl pH 7.5, 5 mM EDTA, 0.008% (weight/vol) saponin, 0.08% (vol/vol) Triton ×100. Plates were agitated to mix, incubated for a further 1 h in the dark at room temperature, then 150 μL samples from each well transferred to a fresh white microwell plate and fluorescence quantified using a SpectraMax M5e plate reader and SoftMax Pro-6.3 software (Ex 485 nm/Em 530 nm). IC50 values were determined from dose–response curves obtained after subtracting background fluorescence values (obtained from the RBC-only wells) from all experimental readings.

[2] = tested on: P. falciparum 3D7 schizonts; assay: Short-term egress/invasion assay, ring formation by flow cytometry; assay type: cell-based, Plasmodium falciparum
Description: For this, P. falciparum cultures containing synchronous, highly mature schizonts were supplemented with compounds 3b, 3e, 3i, and 3j at a range of dilutions, then allowed to undergo egress and invasion for just 4 h in the continued presence of the compounds, before assessing formation of newly invaded “ring” stage parasites by flow cytometry.
Short-term egress, invasion, and washout assays were performed essentially as described previously ([27], [28], [42]). Briefly, highly synchronous mature Percoll-enriched schizonts with or without added fresh RBCs (∼5% parasitaemia final) were incubated with compounds under test or vehicle only (DMSO, 1% vol/vol). For washout assays, schizonts were treated with C2 or various concentrations of inhibitor 3j for 1 to 4 h, then washed extensively (at least four times) prior to addition to fresh RBCs where required. After incubation at 37 °C for just 1 to 4 h (or overnight for invasion assays) to allow schizont rupture, cells were pelleted. Clarified culture supernatants were assessed for extent of hemoglobin release (a measure of schizont rupture) by absorption spectroscopy at 415 nm as described previously ([28]) or analyzed by Western blot using antibodies against SERA5 ([7], [11]). To quantify generation of new rings, samples of the cultures were fixed with 4% paraformaldehyde/0.02% glutaraldehyde and stained with SYBR Green I (Life Technologies) and then analyzed by flow cytometry on a BD FACSVerse using BD FACSuite software. Data were analyzed using FlowJo software. All cultures were also routinely analyzed by microscopic examination of Giemsa-stained thin films to visually assess parasite morphology.

[3] = target: T1, recombinant PfSUB1 (rPfSUB1) (Plasmodium falciparum, UniProt Q8I0V0); assay: rPfSUB1 fluorogenic peptide substrate cleavage inhibition assay; assay type: biochemical; conditions: versus mammalian trypsin, chymotrypsin and elastase
T1 construct: Chymotrypsin-treated rPfSUB1 (expressed and purified as described previously); made in house

[4] = tested on: P. falciparum schizonts expressing EXP2-mNeonGreen; assay: Time-lapse video microscopy of egress after compound washout; assay type: cell-based, Plasmodium falciparum; conditions: 10 μM, 30 min monitoring after washout
P. falciparum schizonts = assay: MitoTracker Red CMXRos viability staining; assay type: cell-based, Plasmodium falciparum; conditions: 10 μM, 1 h
Description: Viewing chambers for live parasite microscopic examination were constructed as previously described ([7]). All images were recorded on a Nikon Eclipse Ni light microscope fitted with a Hamamatsu C11440 digital camera and Nikon N Plan Apo λ 63×/1.45NA oil immersion objective. For time-lapse video microscopy, differential interference contrast (DIC) images were taken at 10 s intervals over 30 min while fluorescence (mNeon Green) images were taken every 2 min to prevent bleaching. Time-lapse videos were analyzed and annotated using Fiji ([44]). For viability staining using the vital mitochondrial dye MitoTracker Red CMXRos (ThermoFisher Scientific; stored as a 10 μM stock in DMSO), the dye was added (20 nM final concentration) to a suspension of schizonts pretreated for 1 h with either DMSO (control, 1% vol/vol) or compound 3j (10 μM). The schizonts were incubated with the dye for 15 min at 37 °C, then washed twice, transferred to a viewing chamber, and observed immediately by dual DIC/fluorescence microscopy.

T1 sequence (Q8I0V0 218-688): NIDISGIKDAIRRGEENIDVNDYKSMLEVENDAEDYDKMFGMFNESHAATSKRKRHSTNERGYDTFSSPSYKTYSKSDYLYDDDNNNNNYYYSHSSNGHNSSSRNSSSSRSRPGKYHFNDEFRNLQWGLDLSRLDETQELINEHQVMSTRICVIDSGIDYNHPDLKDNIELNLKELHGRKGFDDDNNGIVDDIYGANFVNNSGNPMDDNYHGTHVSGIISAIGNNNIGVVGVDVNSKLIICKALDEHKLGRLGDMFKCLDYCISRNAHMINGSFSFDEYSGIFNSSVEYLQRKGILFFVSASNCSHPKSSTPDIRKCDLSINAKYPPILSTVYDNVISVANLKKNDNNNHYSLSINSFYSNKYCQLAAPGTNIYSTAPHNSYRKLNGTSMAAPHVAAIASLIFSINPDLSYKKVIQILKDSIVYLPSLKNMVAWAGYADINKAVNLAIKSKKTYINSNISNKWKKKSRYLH

Compound: CC(=O)NC(C(=O)NC(C(=O)NCC(=O)NC(C)B(O)O)C(C)C)C1CCCC1 (centres unmarked) [3j]
- EC50 ([1]; Plasmodium falciparum, 3D7, 96 h, two erythrocytic growth cycles, SYBR Green I): 0.26 ± 0.06 µM
- improved growth inhibitory potency ([1]; relative to compound 3b): ~10 fold
- higher potency in long-term growth assay ([1]; relative to short-term egress assays): ~10 fold
- schizont phenotype in Giemsa-stained thin films ([2]; 10 μM, 4 h incubation): arrest of unruptured schizonts with no ring formation
- EC50 ([2]; Plasmodium falciparum, mature 3D7 schizonts with RBCs, 4 h, flow cytometry): 2500 ± 300 nM
- selectivity for PfSUB1 [3]: > 100 fold
- egress following washout [4]: no egress occurred over the course of 30 min
- viability (MitoTracker Red CMXRos incorporation) (P. falciparum schizonts): remained viable
